From EP0560274B1, “Antiherpes peptide derivatives having a ureido N-terminus” (priority 1992, dated 1993)
*1 amine or outer side, *2 acyl side, *3 side chain or, on linkers, in order; H or OH if unused. Where a SMILES comes first, the peptide text is derived from it. [ ]: non-standard residue; d: D form. The star is where a group is joined. Asp(3,3-(CH2)4) = N[C@H](C(=O)O)C1(C(=O)O)CCCC1; tBuAla = CC(C)(C)C[C@H](N)C(=O)O; Tle = CC(C)(C)[C@H](N)C(=O)O; Pyrrolidide = C1CCN(*)C1; CO = O=C([*:1])[*:2]; X3 = CCCC(C)(C)N*

System: Herpes Simplex Virus (HSV-2)
Assay type: cell-based
Details: 29 h
Protocol: BHK-21/C13 cells (ATCC CCL 10) are incubated for two days in 150 cm^2 T-flasks (1.5 x 10^6 cells/flask) with alpha-MEM medium (Gibco Canada Inc., Burlington, Ontario, Canada) supplemented with 8% (v/v) fetal bovine serum (FBS, Gibco Canada Inc.). The cells are trypsinized and then transferred to fresh media in a 24 well plate to give 2.5 x 10^5 cells in 750 µL of media per well. The cells are incubated at 37° for a period of 6 h to allow them to adhere to the plate. Thereafter, the cells are washed once with 500 µL of alpha-MEM supplemented with 0.5% (v/v) FBS and then incubated with 750 µL of the same media (low serum) for 3 days. After this period of serum starvation, the low serum medium is removed and the cells are incubated in 500 µL of BBMT for 2 to 3 hours. {BBMT medium is described by P. Brazeau et al., Proc. Natl. Acad. Sci. USA, 79, 7909 (1982).} Thereafter, the cells are infected with HSV-2 (multiplicity of infection = 0.02 PFU/cell) in 100 µL of BBMT medium. (Note: The HSV-2 used was strain HG-52, see Y. Langelier and G. Buttin, J. Gen. Virol., 57, 21 (1981); the virus was stored at -80°.) Following 1 h of virus adsorption at 37°, the media is removed and the cells are washed with BBMT (3 X 250 µL). The cells in each well are incubated with or without (control) appropriate concentrations of the test agent dissolved in 200 µL of BBMT medium. After 29 h of incubation at 37°, the infected cells are harvested by first freezing the plate at -80°, followed by thawing. The cells in each well are scraped off the surface of the well with the help of the melting ice fragments. After complete thawing, the cell suspensions are collected and each well is rinsed with 150 µL of BBMT medium. The viral sample (suspension plus washing) is sonicated gently for 4 min at 4°. Cell debris are removed by centrifugation (1000 times gravity for 10 minutes at 4°). The supernatant is collected and stored at -80° until determination of viral titer.
Viral titration was performed by a modification of the colorimetric assay method of M. Langlois et al., Journal of Biological Standardization, 14, 201 (1986).
More specifically, in a similar manner as described above, BHK-21/C13 cells are trypsinized and transferred to fresh media in a 96 well microtiter plate to give 20,000 cells in 100 µL of media per well. The cells in the prepared plate are incubated at 37° for, 2 h. During that time, the viral sample is thawed and sonicated gently for 15 seconds, and log dilutions of the sample are prepared (1/5 sequential: 50 µL of the sample plus 200 µL of BBMT medium, sequential dilutions being done with a multichannel pipette.
On completion of the above 2 hour incubation of the BHK-21/C13 cells, the media is replaced with alpha-MEM medium supplemented with 3% (v/v) FBS. The cells are now ready to be infected with the various sample dilutions of virus. Aliquots (50 µL) of the various dilutions are transferred into the appropriate wells of the plate. The resulting infected cells are incubated for 2 days at 37°. Then 50 µL of a 0.15% (v/v) solution of neutral red dye in Hank's Balanced Salt Solution (pH 7.3, Gibco Canada Inc.) is added to each well. The prepared plate is incubated for 45 min at 37°. Medium from each well is then aspirated and the cells are washed once with 200 µL of Hank's Balanced Salt Solution. After the wash, the dye is released from the cells by the addition of 100 µL of a 1:1 mixture of 0.1 M Sorensen's citrate buffer (pH 4.2) and ethanol. {Sorensen's citrate buffer is prepared as follows: Firstly, a 0.1 M disodium citrate solution is prepared by dissolving citric acid monohydrate (21 g) in 1 N aqueous NaOH (200 mL) and adding sufficient filtered H2O to make 1 L. Secondly, the 0.1 M disodium citrate solution (61.2 mL) is mixed with 0.1 N aqueous HCl (38.8 mL) and the pH of the resulting solution is adjusted to 4.2 if necessary.} The mixture in the wells is subjected to a gentle vortex action to ensure proper mixing.

| Compound | EC50 |
| --- | --- |
| CCCC(CCC)NC(=O)N[C@H](C(=O)N[C@@H](CC(=O)C1CCCCC1)C(=O)N[C@H](C(=O)NCC(C)(C)C)C1(C(=O)O)CCCC1)C(C)(C)C [Pr2CHNHC(O)-Tbg-NHCH(2-cyclohexyl-2-oxoethyl)C(O)-Asp(cyPn)-NHCH2CMe3] | 140 µM |
| CCCC(CCC)NC(=O)N[C@H](C(=O)N[C@@H](CC(=O)C(CC)CC)C(=O)N[C@H](C(=O)NCC(C)(C)C)C1(C(=O)O)CCCC1)C(C)(C)C [Pr2CHNHC(O)-Tbg-NHCH(3-ethyl-2-oxopentyl)CO-Asp(cyPn)-NHCH2CMe3] | 25 µM |
| CCCC(C)(C)NC(=O)N[C@H](C(=O)N[C@@H](CC(=O)N1CCCC1)C(=O)N[C@H](C(=O)N[C@@H](CC(C)(C)C)C(=O)O)C1(C(=O)O)CCCC1)C(C)(C)C [PrMe2CNHC(O)-Tbg-Asp(pyrrolidino)-Asp(cyPn)-γMeLeu-OH] ({X3-CO}-[Tle]D(Pyrrolidide)[Asp(3,3-(CH2)4)][tBuAla]-OH) | 110 µM |

Now from value to compound:

| EC50 | Compound |
| --- | --- |
| 90 µM | CCCC(CCC)NC(=O)N[C@H](C(=O)N[C@@H](CC(=O)C1CCCC1)C(=O)N[C@H](C(=O)NCC(C)(C)C)C1(C(=O)O)CCCC1)C(C)(C)C [Pr2CHNHC(O)-Tbg-NHCH(2-cyclopentyl-2-oxoethyl)C(O)-Asp(cyPn)-NHCH2CMe3] |
| 75 µM | CCCC(CCC)NC(=O)N[C@H](C(=O)N[C@@H](CC(=O)N1CCCC1)C(=O)N[C@H](C(=O)N[C@H](CO)CC(C)(C)C)C1(C(=O)O)CCCC1)C(C)(C)C [Title Compound of Example 8, Pr2CHNHC(O)-Tbg-Asp(pyrrolidino)-Asp(cyPn)-γMeLeucinol] |
